Results on 28 compounds are retold here after article PMC4154846, “Functional Characterization of Chemosensory Proteins in the Scarab Beetle, Holotrichia oblita Faldermann (Coleoptera: Scarabaeida)” (PLoS ONE, 2014).

Test [1] concerns the target T1, HoblCSP1 (Holotrichia oblita, UniProt G9BWI4). As to the kind of experiment: Fluorescence binding of 1-NPN to HoblCSP1 (binding curve, Scatchard plot). The conditions noted are these: 2 µM protein; 1-NPN 2∼24 µM; read-out: dissociation constant of CSP1/1-NPN. The method, then:
(§1) Fluorescence binding assay was based on method previously described by Yin et al.. Briefly, fifty compounds (Sigma-Aldrich, Germany) with chemical purities ≥97% were tested in a Lengguang 970 CRT spectrofluorimeter (Shanghai Jingmi, China). Assuming the proteins were 100% active, the binding affinities for N-phenyl-1-naphthylamine (1-NPN) were determined by adding aliquots of 1-NPN into a 2 µM protein solution for final concentrations of 2∼24 µM. The dissociation constants of the binding competitors were calculated from IC50 according to Campanacci et al: Ki = [IC50]/(1+[1-NPN]/K(1-NPN)), where [1-NPN] represents the concentration of unbound 1-NPN and K(1-NPN) is the dissociation constant of 1-NPN [46]. Binding data for each ligand was collected from 3 measurements.
(§2) Figure 3 Fluorescence competition assay of the recombinant HoblCSP1 and HoblCSP2. (A) Binding curves of 1-NPN with HoblCSP1 and HoblCSP2 and their relative Scatchard plots. The dissociation constant of HoblCSP1 is 2.53 µM and that of HoblCSP2 is 2.93 µM. (B) Representative competitive binding curves of the recombinant HoblCSP1 to a series selected ligands (see Table 1). […] Fluorescence intensities are plotted as percent of the initial fluorescence in the absence of ligands. […]

For test [2], the target named is T2, HoblCSP2 (Holotrichia oblita, UniProt G9BWQ6). Kind of test: Fluorescence binding of 1-NPN to HoblCSP2 (binding curve, Scatchard plot). The conditions noted are these: 2 µM protein; 1-NPN 2∼24 µM; read-out: dissociation constant of CSP2/1-NPN. The method, then:
as §1, §2

Test [3] addresses T1, HoblCSP1. As to the kind of experiment: Fluorescence competition assay with 1-NPN, recombinant HoblCSP1. The format is binding. The conditions noted are these: for binding affinity to HoblCSP1, in words: competition assay. As for the experimental part:
(§3) Fluorescence binding assay was based on method previously described by Yin et al.. Briefly, fifty compounds (Sigma-Aldrich, Germany) with chemical purities ≥97% were tested in a Lengguang 970 CRT spectrofluorimeter (Shanghai Jingmi, China). […] Binding data for each ligand was collected from 3 measurements.
(§4) Figure 3 Fluorescence competition assay of the recombinant HoblCSP1 and HoblCSP2. (A) Binding curves of 1-NPN with HoblCSP1 and HoblCSP2 and their relative Scatchard plots. […] (B) Representative competitive binding curves of the recombinant HoblCSP1 to a series selected ligands (see Table 1). All proteins used were diluted to a fixed concentration of 2 µM, while the concentration of 1-NPN varied with the respective dissociation constant of HoblCSPs/1-NPN. […] Fluorescence intensities are plotted as percent of the initial fluorescence in the absence of ligands. The molecular formulas of representative ligands are shown here as well.

Test [4] concerns the target T2, HoblCSP2. Kind of test: Fluorescence competition assay with 1-NPN, recombinant HoblCSP2. The format is binding. The conditions noted are these: for binding affinity to HoblCSP2, in words: competition assay. As for the experimental part: as §3, §4
A further test deals with H.oblita antennae. Also on record: method as in PMID 21852709. The conditions noted are these: cited from earlier work.
A further test concerns H.oblita. Also on record: method as in earlier work. The conditions noted are these: cited from earlier work.
Another test has as its system AgamCSP3. Set-up: method as in PMID 23599217. The conditions noted are these: cited from earlier work.
[5] abbreviates: competition with 1-NPN, 2 µM protein, ligand 0–28 µM, Ki calculated from IC50, 3 measurements, read-out: HoblCSP1 Ki.
Setting [6] is: competition with 1-NPN, 2 µM protein, ligand 0–28 µM, Ki calculated from IC50, 3 measurements, read-out: HoblCSP2 Ki.

Where “and” joins values, the source holds several entries; their conditions need not be identical. Equal entries are not always repeated. Entries after “also recorded” stand apart in the source; their conditions may differ. Where two headings read alike, the source gives them in different places.

T2 sequence (G9BWQ6 entry or part of it): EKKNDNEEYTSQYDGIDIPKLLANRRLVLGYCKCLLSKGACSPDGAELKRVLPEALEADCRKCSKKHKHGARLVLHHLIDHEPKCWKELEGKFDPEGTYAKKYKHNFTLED
T1 sequence (G9BWI4 entry or part of it): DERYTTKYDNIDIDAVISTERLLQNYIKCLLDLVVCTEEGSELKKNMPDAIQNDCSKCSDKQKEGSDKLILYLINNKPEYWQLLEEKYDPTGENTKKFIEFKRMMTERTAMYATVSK

On to `c1ccc(Nc2cccc3ccccc23)cc1` [1-NPN, N-phenyl-1-naphthylamine], for which the Kd came out at 2.53 µM on HoblCSP1 [1] and 2.93 µM on HoblCSP2 [2].
As to `C=CC(O)CCCCC` (centres unmarked) [1-Octen-3-ol], the Ki at HoblCSP1 [3] (setting [5]) was 48.1 µM.
Take `CCCCCCCCO` [1-octanol]: the figures for the Ki on HoblCSP2 [4] (setting [6]) and at HoblCSP1 [3] (setting [5]) were 40.6 µM and 35.9 µM, respectively.
In the case of `CCCCC(CC)CO` (centres unmarked) [2-Ethy1-1-Hexanol], the Ki on HoblCSP2 [4] (setting [6]) was 32.1 µM; at HoblCSP1 [3] (setting [5]) it was 29.9 µM.
In the same order, the values of `CC(C)(C)C1CCC(O)CC1` (centres unmarked) [4-tert-butylcyclohexanol] are 50.7 µM and 34.6 µM.
Take `CC(=O)CCC=C(C)C` [6-Methyl-5-hepten-2-one]: on HoblCSP2 [4], the Ki was 56.9 µM and the “binding affinity to HoblCSP2, in words” value is on record as “higher affinities”.
In the case of `CCOC(=O)CN` [Glycine ethyl ester], at HoblCSP2 [4], the “binding affinity to HoblCSP2, in words” value is recorded as “limited affinities”. The figures for the Ki on HoblCSP2 [4] (setting [6]) and at HoblCSP1 [3] (setting [5]) were 39.5 µM and 43.5 µM, respectively. The “binding affinity to HoblCSP1, in words” value on HoblCSP1 [3] is reported as “limited affinities”.
For `CC[C@H](C)[C@H](N)C(=O)OC` [L-Isoleucine methyl este], the “binding affinity to HoblCSP2, in words” value at HoblCSP2 [4] is “limited affinities”. In addition, the “binding affinity to HoblCSP1, in words” value on HoblCSP1 [3] was “limited affinities”.
With `COC(=O)[C@@H]1CCCN1` [L-Proline methyl ester], the “binding affinity to HoblCSP2, in words” value at HoblCSP2 [4] is “limited affinities”. Moreover, on HoblCSP1 [3], the “binding affinity to HoblCSP1, in words” value is recorded as “limited affinities”. Also, the Ki on HoblCSP1 [3] (setting [5]) is 57 µM.
As for `COc1ccccc1` [anisole], the Ki at HoblCSP2 [4] (setting [6]) is 29.5 µM; on HoblCSP1 [3] (setting [5]), 28.4 µM.
For `O=Cc1ccccc1` [benzaldehyde], at HoblCSP2 [4], the Ki was found to be 19.5 µM and the “binding affinity to HoblCSP2, in words” value is “medium affinities”. Also, at HoblCSP1 [3], the Ki is 23.3 µM and the “binding affinity to HoblCSP1, in words” value is “medium affinities”.
For `OCc1ccccc1` [benzyl alcohol], the Ki at HoblCSP2 [4] turned out to be 54.8 µM; on HoblCSP1 [3] it was 34.9 µM.
With `C=C1C2CCC(C2)C1(C)C` (centres unmarked) [camphene], the “binding affinity to HoblCSP2, in words” value on HoblCSP2 [4] was “could not bind camphene at all”. For the same compound, the “binding affinity to HoblCSP1, in words” value at HoblCSP1 [3] is listed as “able to bind camphene, albeit with a high Ki value”. Moreover, on HoblCSP1 [3] (setting [5]), the Ki is 37.9 µM.
On to `O=C/C=C/c1ccccc1` [cinnamaldehyde], for which the “electrophysiological response in H.oblita antennae (EAG)” value in the test with H.oblita antennae is on record as “strong electrophysiological responses”. For the same compound, on HoblCSP2 [4], the Ki was found to be 17.5 µM and the “binding affinity to HoblCSP2, in words” value is listed as “highest affinities”. Moreover, at HoblCSP1 [3], the Ki amounted to 20.5 µM and the “binding affinity to HoblCSP1, in words” value is “highest affinities”. The “attraction to H.oblita” value in the test on H.oblita is given as “great attraction”.
In the case of `CC/C=C\CCO` [cis-3-hexen-1-ol], the “binding affinity to HoblCSP2, in words” value on HoblCSP2 [4] is listed as “higher affinities”. Moreover, the Ki at HoblCSP2 [4] (read-out: HoblCSP2 Ki, competition with 1-NPN, 2 µM protein, ligand 0–28 µM, Ki calculated from IC50, 3 measurements) is 47.8 µM and 35.7 µM; on HoblCSP1 [3] (read-out: HoblCSP1 Ki, competition with 1-NPN, 2 µM protein, ligand 0–28 µM, Ki calculated from IC50, 3 measurements) it was 46.9 µM.
Consider `CC(C)=CCC[C@@H](C)CC=O` [citronellal], for which, in the test with AgamCSP3, the “best ligands for AgamCSP3” value is “best ligands”.
Regarding `COC(=O)c1ccccc1C(=O)OC` [dimererhyl phthalate], the “binding affinity to HoblCSP1, in words” value at HoblCSP1 [3] is recorded as “higher affinities”. For the same compound, the Ki at HoblCSP1 [3] (setting [5]) was 22.3 µM.
On to `C=CCc1ccc(O)c(OC)c1` [eugenol], for which, at HoblCSP1 [3], the Ki stood at 30 µM and the “binding affinity to HoblCSP1, in words” value was “higher affinities”.
As to `CC(C)=CCC/C(C)=C/CO` [geraniol], on HoblCSP2 [4], the Ki was 30.2 µM and the “binding affinity to HoblCSP2, in words” value was “medium affinities”. On HoblCSP1 [3], the Ki is 29.5 µM and the “binding affinity to HoblCSP1, in words” value was “medium affinities”.
Take `CCCCCCO` [hexanol]: the Ki is 60.5 µM at HoblCSP2 [4] (setting [6]) and 57.6 µM at HoblCSP1 [3] (setting [5]).
`COC(=O)c1ccccc1O` [methyl salicylate]: at HoblCSP1 [3], the Ki is 47.3 µM and the “binding affinity to HoblCSP1, in words” value is given as “higher affinities”.
Regarding `C=CC(=C)CCC=C(C)C` [myrcene], the “binding affinity to HoblCSP2, in words” value at HoblCSP2 [4] is “medium affinities”. In addition, the Ki at HoblCSP2 [4] (setting [6]) is 29.5 µM; at HoblCSP1 [3] (setting [5]) it was 25.4 µM. The “binding affinity to HoblCSP1, in words” value at HoblCSP1 [3] is “medium affinities”.
Consider `CCCCCCCCC=O` [nonanal], for which the “best ligands for AgamCSP3” value with AgamCSP3 is “best ligands”.
With `CC1=C(/C=C/C(C)=C/C=C/C(C)=C/C=O)C(C)(C)CCC1` [retinal], the “best ligands for AgamCSP3” value with AgamCSP3 is “best ligands”.
As to `CCC/C=C/C=O` [trans-2-hexenal], on HoblCSP2 [4], the Ki came out at 25.7 µM and the “binding affinity to HoblCSP2, in words” value is on record as “medium affinities”. Besides, on HoblCSP1 [3], the Ki was 24.9 µM and the “binding affinity to HoblCSP1, in words” value is “medium affinities”.
As for `CC1=CC[C@@H](C(C)(C)O)CC1` [α -terpineol], the Ki on HoblCSP2 [4] (setting [6]) is 39.4 µM; on HoblCSP1 [3] (setting [5]) it was 46.8 µM.
For `CC(=O)/C=C/C1C(C)=CCCC1(C)C` (stereo not drawn) [α-ionone], the “electrophysiological response in H.oblita antennae (EAG)” value with H.oblita antennae is “strong electrophysiological responses”. Besides, at HoblCSP2 [4], the Ki came to 11.5 µM and the “binding affinity to HoblCSP2, in words” value is “highest affinities”. For the same compound, on HoblCSP1 [3], the Ki was determined as 10.5 µM and the “binding affinity to HoblCSP1, in words” value is “highest affinities”.
For the compound `CC(=O)/C=C/C1=C(C)CCCC1(C)C` [β-ionone], on HoblCSP2 [4], the inhibition constant Ki was determined as 4.47 µM and the “binding affinity to HoblCSP2, in words” value is given as “bound most strongly; also recorded: highest affinities”. Moreover, on HoblCSP1 [3], the Ki turned out to be 4.3 µM and the “binding affinity to HoblCSP1, in words” value was “bound most strongly; also recorded: highest affinities; also recorded: best ligand”.

In general, Ki refers to a measure of affinity in units of concentration, obtained from inhibition or displacement.
